Test results from patent US10525143B2, “Conjugate of polyethylene glycol and anesthetic, and preparation method thereof” (JenKem Technology Co., Ltd. (Tianjin), priority 2015, dated 2020).
Structures can show the parent of a compound that is named as a salt.

Experiments:
SD rats = test: Von Frey test in rat incisional pain model (Brennan method); type: in vivo; settings: for Von Frey Hairs (g) 1 h: paw withdrawal threshold 1 h after surgery; for Von Frey Hairs (g) 1 h / Von Frey Hairs (g) 3 h / Von Frey Hairs (g) 6 h / Von Frey Hairs (g) 12 h / Von Frey Hairs (g) 24 h: injected in the incision, 10 mg/kg (counted by lidocaine) or 4 mg/kg (counted by bupivacaine); for Von Frey Hairs (g) 1 h / Von Frey Hairs (g) 3 h / Von Frey Hairs (g) 6 h / Von Frey Hairs (g) 12 h / Von Frey Hairs (g) 24 h / Von Frey Hairs (g) Basline: x±s; for Von Frey Hairs (g) 3 h: paw withdrawal threshold 3 h after surgery; for Von Frey Hairs (g) 6 h: paw withdrawal threshold 6 h after surgery; for Von Frey Hairs (g) 12 h: paw withdrawal threshold 12 h after surgery; for Von Frey Hairs (g) 24 h: paw withdrawal threshold 24 h after surgery; for Von Frey Hairs (g) Basline: paw withdrawal threshold before surgery and administration, 6 rats per group
[1] = single dose injected; postoperative pain; background statement; cited from earlier work
[2] = background statement; cited from earlier work

Q: Which “duration of analgesia (in words)” value (SD rats; discussion of Table 1) does the source give for `CCCCN1CCCCC1C(=O)Nc1c(C)cccc1C` (stereo not drawn) [Bupivacaine hydrochloride] here?
A: relatively long duration

Q: What about the “onset of analgesic effect (in words)” value (SD rats; discussion of Table 1) of the same molecule?
A: takes effect more slowly than lidocaine hydrochloride

Q: What about the “Von Frey Hairs (g) 1 h” value (SD rats) of the same molecule?
A: 4.3 ± 0.7 g

Q: And the “Von Frey Hairs (g) 3 h” value (SD rats)?
A: 6.6 ± 0.4 g

Q: What about the “Von Frey Hairs (g) 6 h” value (SD rats) of the same molecule?
A: 5.3 ± 0.5 g

Q: And the “Von Frey Hairs (g) 12 h” value (SD rats)?
A: 3.4 ± 0.9 g

Q: What about the “Von Frey Hairs (g) 24 h” value (SD rats) of the same molecule?
A: 1.7 ± 0.4 g

Q: And the “Von Frey Hairs (g) Basline” value (SD rats)?
A: 7.3 ± 0.7 g

Q: With `CCCCN1CCCCC1C(=O)Nc1c(C)cccc1C` (stereo not drawn) [Bupivacaine] as the molecule, how does the “duration of analgesic effect” value [1] read?
A: less than 7 h

Q: For `CCCCN1CCCC[C@H]1C(=O)Nc1c(C)cccc1C` [L-bupivacaine], which “duration of the drug (local anesthesia)” value [2] is on record?
A: 5 to 7 h

Q: With `CCN(CC)CC(=O)Nc1c(C)cccc1C` [Lidocaine hydrochloride] as the molecule, how does the “Von Frey Hairs (g) 1 h” value (SD rats) read?
A: 6.6 ± 0.5 g

Q: And the “Von Frey Hairs (g) 3 h” value (SD rats)?
A: 6.1 ± 0.4 g

Q: What about the “Von Frey Hairs (g) 6 h” value (SD rats) of the same molecule?
A: 4.0 ± 0.6 g

Q: And the “Von Frey Hairs (g) 12 h” value (SD rats)?
A: 1.5 ± 0.4 g

Q: And the “Von Frey Hairs (g) 24 h” value (SD rats)?
A: 1.4 ± 0.2 g

Q: And the “Von Frey Hairs (g) Basline” value (SD rats)?
A: 7.5 ± 0.8 g

Q: For `CCN(CC)CC(=O)Nc1c(C)cccc1C` [lidocaine], which “duration of the drug (local anesthesia)” value [2] is on record?
A: 1 to 2 h

Q: Which “duration of the drug (local anesthesia)” value [2] does the source give for `CCCN1CCCC[C@H]1C(=O)Nc1c(C)cccc1C` [ropivacaine] here?
A: 4.4 h
